In patent US5316944A, “Enzymatic resolution of a racemic mixture of gamma-amino acids using penicillin acylase” (Merrell Dow Pharmaceuticals, priority 1992, dated 1994):

Experiments:
penicillin acylase = penicillin acylase (Escherichia coli, UniProt P06875); test: penicillin acylase-catalyzed hydrolysis of N-phenylacetyl derivatives; type: biochemical, E.coli; conditions: for E: E values calculated from the yields and the ee's of the (R)-enantiomers; for Reaction rate: [S] = 50 mm, pH 7.8, 25° C.
Chain of penicillin acylase (P06875 290-846): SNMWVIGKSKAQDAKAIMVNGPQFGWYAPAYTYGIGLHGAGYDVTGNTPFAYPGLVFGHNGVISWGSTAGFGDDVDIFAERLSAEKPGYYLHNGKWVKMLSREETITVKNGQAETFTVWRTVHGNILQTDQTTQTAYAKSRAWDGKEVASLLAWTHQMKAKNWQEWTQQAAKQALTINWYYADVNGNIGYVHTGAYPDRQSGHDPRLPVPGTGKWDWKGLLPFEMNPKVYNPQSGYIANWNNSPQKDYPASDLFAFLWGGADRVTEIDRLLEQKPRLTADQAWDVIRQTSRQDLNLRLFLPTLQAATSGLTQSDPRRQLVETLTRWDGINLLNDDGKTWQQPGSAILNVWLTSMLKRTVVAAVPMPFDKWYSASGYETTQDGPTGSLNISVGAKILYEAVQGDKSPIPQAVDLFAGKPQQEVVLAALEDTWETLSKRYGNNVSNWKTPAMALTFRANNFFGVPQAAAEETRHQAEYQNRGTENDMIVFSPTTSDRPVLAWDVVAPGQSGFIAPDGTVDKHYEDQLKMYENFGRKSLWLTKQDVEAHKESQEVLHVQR
Chain of penicillin acylase (P06875 27-235): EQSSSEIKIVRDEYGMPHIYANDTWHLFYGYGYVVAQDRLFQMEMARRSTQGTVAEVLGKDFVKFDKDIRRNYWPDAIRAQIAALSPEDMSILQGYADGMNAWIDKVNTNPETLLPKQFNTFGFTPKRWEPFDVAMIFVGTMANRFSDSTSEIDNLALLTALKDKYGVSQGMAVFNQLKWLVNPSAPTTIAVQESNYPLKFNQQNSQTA
Excerpt: Here we report a simple procedure for the preparation of the enantiomers of γ-ethynyl GABA, γ-allenyl GABA, and γ-vinyl GABA by penicillin acylase-catalyzed hydrolysis of the corresponding N-phenylacetyl derivatives. Penicillin acylase (PA) from E.coli is used in industry for the preparation of 6-aminopenicillanic acid and semisynthetic β-lactam antibiotics (V. K. Svedas et al., Enzyme Microb. Technol., 2, 138 (1980)). PA is highly specific to phenylacetyl group and catalyzes its cleavage not only from penicillins, but also from amides, peptides, and esters (M. Cole, Biochem J., 115, 733 (1969); Ibid, 741; and, A. Czentirmai, Acta Microbiol. Acad. Sci. Hung., 12, 395 (1965/1966). The structure of the leaving group of the substrates hardly affects the rate constants of the hydrolytic reactions (M. Cole, Nature, 203, 519 (1964), and A. L. Margolin et al., Biochim. Biophys. Acta, 616, 283 (1980)). The enantioselectivity of PA was exploited in the preparation of amino acids (D. Rossi et al., Experientia, 33, 1557 (1977) and Ibid, 41, 35 (1985)), aminoalkylphosphonic acids (V. A. Solodenko et al., Tetrahedron, 47, 3989 (1991)), esters and alcohols (C. Fuganti et al., Tetrahedron Letters, 44, 2575 (1988), and H. Waldman, 30, 3057 (1989)), although the hydrolysis of an ester bond normally results in products with modest optical purity.
In a typical experiment, 0.7 g of penicillin acylase immobilized on Eupergit C, was suspended in a solution of (N-phenylacetyl)-vinyl GABA (1.0 g; 4 mmol) in 35 ml 0.1 M phosphate buffer, pH 7.8. The mixture was stirred at room temperature (r.t.) for 5 hours. Then the solution was adjusted to pH 2 and the remaining substrate was extracted with CH2 Cl2 to give (S)-(N-phenylacetyl)-vinyl GABA (organic layer) and (R)-γ-vinyl GABA (aqueous). Since the chemical deacylation of (S)-(N-phenylacetyl)-vinyl GABA under acid conditions results in the formation of byproducts the same enzyme was used for the deacylation of (S)-(N-phenylacetyl)-vinyl GABA. To achieve an effective hydrolysis, a larger amount of Eupergit-PA (1.5 g), higher reaction temperature (45° C.), and longer reaction time (2 days) were used. When the reaction was complete (HPLC) the Eupergit-PA was filtered off and phenylacetic acid was extracted with CH2 Cl2 from acidic solution (pH 2). The aqueous solution of both (R)- and (S)-γ-vinyl GABA were subjected to ion-exchange chromatography (Dowex 1×2- 100 (OH-)) followed by lyophilization. The enamtiomers of γ-ethynyl GABA and γ-allenyl GABA were prepared by the same procedure (Table 1).
^b [S] = 50 mm; pH 7.8:25° C.
^f The E values were calculated from the yields and the ee's of the
(R)enantiomers (C. S. Chen, et al., J. Am. Chem. Soc., 104, 7294 (1982)).

[1] = test system: experimentally-induced seizures; conditions: compared with (S)-counterpart or racemic compound; cited from earlier work
GABA-T = conditions: known to elevate brain levels of GABA; cited from earlier work
[2] = which enantiomer is active; cited from earlier work

| SMILES | E (penicillin acylase) | Reaction rate (penicillin acylase) | inhibition of GABA-T (GABA-T) | other results |
| --- | --- | --- | --- | --- |
| C=C=CC(CCC(=O)O)NC(=O)Cc1ccccc1 (racemic) [Allenyl] | 20 | 46% |  |  |
| C#CC(CCC(=O)O)NC(=O)Cc1ccccc1 (racemic) [Ethynyl] | > 100 | 100% |  |  |
| C=CC(CCC(=O)O)NC(=O)Cc1ccccc1 (racemic) [Vinyl, (N-phenylacetyl)-vinyl GABA] | 17 | 39% |  |  |
| C#C[C@H](N)CCC(=O)O [(R)-γ-ethynyl GABA] |  |  |  | activity as an anticonvulsant agent [1]: more active |
| C=C=CC(N)CCC(=O)O (stereo not drawn) [γ-allenyl GABA, 4-amino-hepta-5,6-dienoic acid] |  |  | irreversible inhibitors | biological activity [2]: resides in the (S)-enantiomers |
| C#CC(N)CCC(=O)O (stereo not drawn) [γ-ethynyl GABA, 4-aminohex-5-ynoic acid] |  |  | irreversible inhibitors |  |
| C=CC(N)CCC(=O)O (stereo not drawn) [γ-vinyl GABA, 4-aminohex-5-enoic acid] |  |  | irreversible inhibitors | biological activity [2]: resides in the (S)-enantiomers |
